Key:
[1] = Encapsulation efficiency of lipid nanoparticles (Quant-it RiboGreen RNA Assay); format: physicochemical; details: lipid nanoparticles with luciferase mRNA
Summary of the method: (§1)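 LNPs of ionizable lipid/cholesterol/phospholipid/PEG-lipid (50/38.5/10/1.5 mol%, N/P 6) were formed by microfluidic mixing with mRNA in pH 4.5 acetate, then buffer-exchanged by ultrafiltration. Size and PDI were measured by DLS. Encapsulation came from RiboGreen fluorescence (485/528 nm) in TE pH 7.5, with and without 0.5% Triton at 37 °C for 30 min.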

C57BL/6 mice = experiment: In vivo delivery of luciferase mRNA lipid nanoparticles in mice (bioluminescence imaging); details: intravenous, single dose 0.5 mg/kg luciferase mRNA
Summary of the method: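 Female C57BL/6 mice, 6-8 weeks old, received luciferase mRNA lipid nanoparticles as a single intravenous dose of 0.5 mg/kg mRNA. At 6 h, D-luciferin given intraperitoneally; 10 min later, mice were imaged under isoflurane anaesthesia. Values are group mean fluorescence intensity and total photon count.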

[2] = Particle size and PDI of lipid nanoparticles by dynamic light scattering; format: physicochemical; details: lipid nanoparticles with luciferase mRNA; ionizable lipid/cholesterol/DSPC/DMG-PEG2000 50/38.5/10/1.5 mol%
Summary of the method: as §1

SMILES	Encapsulation efficiency (%) [1] [%]	Total photon count in vivo at 6 hours after administration (Total Flux) (C57BL/6 mice)	Particle size (nm) [2] [nm]	Particle-size distribution (PDI) [2]
CCCCCC#CCCOC(=O)CCCCCCCN(CCO)CCCCCCC(C)(C)C(=O)OC(CCCCCCCC)CCCCCCCC [55a]	73.85	1.96E+10	126.17	0.16
CCCCCCCCCCC(=O)OCCC(C)(C)CCCCN(CCCCO)CCCCCCCC(=O)OC(CCCCCCCCC)CCCCCCCCC [55b]	94.65	1.02E+11	90.37	0.11
CCCCCCCCCC(=O)OCCC(C)(C)CCCCN(CCO)CCCCCCCC(=O)OCC(CCCCCCC)CCCCCCC [56b]	93.87	8.35E+10	98.59	0.16
CCCCCC/C=C\COC(=O)CCCCCCCN(CCO)CCCCCCC(C)(C)C(=O)OC(CCCCCCCC)CCCCCCCC [57a]	95.41	3.42E+10	79.17	0.17
CCCCCCCCCC(=O)OCCCC(C)(C)CCCN(CCO)CCCCCCCC(=O)OCC(CCCCCCC)CCCCCCC [57b]	94.15	3.86E+10	98.23	0.18
CCCCCCCCCNC(=O)CCCCCCCN(CCO)CCCCCCC(C)(C)C(=O)OC(CCCCCCCC)CCCCCCCC [58a]	68.54	2.72E+10	187.50	0.18
CCCCCCCCCC(=O)OCC1(CCCCCN(CCCO)CCCCCCCC(=O)OCC(CCCCCCC)CCCCCCC)CC1 [58b]	92.88	6.17E+10	112.93	0.15
CCCCCCCCCC(=O)OCCC(C)(C)CCCCN(CCCCO)CCCCCCCC(=O)OCC(CCCCCCC)CCCCCCC [59b]	80.27	1.04E+11	127.23	0.12
CCCCCCCCCCOC(=O)CCCCC(C)(C)CCN(CCCCCCCC(=O)OC(CCCCCCCCC)CCCCCCCCC)C(=O)SCCCCN(C)C [60a]	97.44	1.75E+10	92.74	0.15
CCCCCCCCCOC(=O)CCCCC(C)(C)CCN(CCCCCCCC(=O)OCC(CCCCCCC)CCCCCCC)C(=O)SCCCN(C)C [61a]	95.87	1.32E+10	111.90	0.09
CCCCCCCCCCCOC(=O)CCCCCN(CCO)CCCCC(C)(C)CCC(=O)OC(CCCCCCCC)CCCCCCCC [62a]	89.88	1.20E+10	98.07	0.17
CCCCCCCCCCC(=O)OCC(C)(C)CCCCCN(CCCCO)CCCCCCCC(=O)OCCCC(CCCCCC)CCCCCC [63b]	84.27	2.72E+10	165.53	0.09
CCCCCCCCCCCOC(=O)CCCCC(C)(C)CCN(CCO)CCCCCCCC(=O)OC(CCCCCCCCCC)CCCCCCCCCC [64a]	96.72	9.82E+10	86.99	0.15
CCCCCCCCCC(=O)OCCCC(C)(C)CCCN(CCCCO)CCCCCCCC(=O)OCC(CCCCCCC)CCCCCCC [64b]	89.27	3.36E+10	143.67	0.09
CCCCCCCCCCOC(=O)CCCCC(C)(C)CCN(CCO)CCCCCCCC(=O)OCC(CCCCCCCC)CCCCCCCC [65a]	95.93	6.53E+10	95.88	0.16
CCCCCCCC(CCCCCCC)COC(=O)CCCCCCCN(CCO)CCCCCC(C)(C)COC(=O)CC(CCCCCCC)CCCCCCC [65b]	97.75	1.25E+11	80.60	0.16
CCCCCCCCCCOC(=O)CCCCC(C)(C)CCN(CCCO)CCCCCCCC(=O)OC(CCCCCCCCC)CCCCCCCCC [66a]	92.88	9.31E+10	105.77	0.11

SMILES	Encapsulation efficiency (%) [1] [%]	Total photon count in vivo at 6 hours after administration (Total Flux) (C57BL/6 mice)	Particle size (nm) [2] [nm]	Particle-size distribution (PDI) [2]
CCCCCCCCCC(CCCCCCCCC)OC(=O)CCCCCCCN(CCO)CCCCCC(C)(C)COC(=O)CCCC(CCCCCC)CCCCCC [66b]	97.18	4.35E+10	81.83	0.17
CCCCCCCCCCOC(=O)CCCCC(C)(C)CCN(CCCCO)CCCCCCCC(=O)OC(CCCCCCCCC)CCCCCCCCC [67a]	91.57	6.07E+10	111.33	0.06
CCCCCCCCCC(=O)OCC(C)(C)CCCCCN(CCO)CCCCCCC(=O)OCC(CCCCCCCC)CCCCCCCC [67b]	96.30	1.71E+11	88.28	0.23
CCCCCCCCCCCOC(=O)CCCCC(C)(C)CCN(CCCCO)CCCCCCCC(=O)OC(CCCCCCCCCC)CCCCCCCCCC [68a]	94.47	7.55E+10	103.93	0.04
CCCCCCCCCC(=O)OCC(C)(C)CCCCCN(CCO)CCCCCCC(=O)OCCC(CCCCCCC)CCCCCCC [68b]	96.31	2.88E+11	88.33	0.20
CCCCCCCCCOC(=O)CCCCC(C)(C)CCN(CCO)CCCCCC(=O)OCC(CCCCCCCCC)CCCCCCCCC [69a]	96.65	7.41E+10	107.20	0.34
CCCCCCCCCC(=O)OCC(C)(C)CCCCCN(CCCCO)CCCCCCC(=O)OCC(CCCCCCCC)CCCCCCCC [69b]	93.85	1.52E+11	99.05	0.13
CCCCCCCCCOC(=O)CCCCC(C)(C)CCN(CCO)CCCCCCC(=O)OCC(CCCCCCCC)CCCCCCCC [70a]	96.69	9.33E+10	86.08	0.15
CCCCCCCCCC(=O)OCC(C)(C)CCCCCN(CCCCO)CCCCCCC(=O)OCCC(CCCCCCC)CCCCCCC [70b]	96.91	1.15E+11	96.20	0.09
CCCCCCCCCC(=O)OCCCC(C)(C)CCCN(CCO)CCCCCCCC(=O)OCCC(CCCCCC)CCCCCC [71b]	95.95	1.70E+11	95.59	0.17
CCCCCCCCCCC(=O)OCCCCC(C)(C)CCN(CCO)CCCCCCCC(=O)OCCC(CCCCCCC)CCCCCCC [72b]	95.13	7.01E+10	92.45	0.12
CCCCCCCCCC(=O)OCCCC(C)(C)CCCN(CCO)CCCCCCC(=O)OCCC(CCCCCCC)CCCCCCC [74b]	94.92	7.13E+10	93.18	0.17
CCCCCCCCCC(=O)OCCCC(C)(C)CCCN(CCO)CCCCCCC(=O)OCCCC(CCCCCC)CCCCCC [75b]	95.99	7.05E+10	91.60	0.19
CCCCCCCCCC(=O)OCC(C)(C)CCCCCN(CCCO)CCCCCCC(=O)OCC(CCCCCCCC)CCCCCCCC [76b]	94.97	9.41E+10	91.27	0.18
CCCCCCCCCC(=O)OCC(C)(C)CCCCCN(CCCO)CCCCCCC(=O)OCCC(CCCCCCC)CCCCCCC [77b]	95.88	9.72E+10	93.16	0.16
CCCCCCCCCCC(=O)OCC(C)(C)CCCCCN(CCCCO)CCCCCCC(=O)OCC(CCCCCCCCC)CCCCCCCCC [78b]	92.27	5.51E+10	98.88	0.12
